Test results reported in patent US10696946B2, “T-REG cell expansion” (The Board of Trustees of the University of Illinois, priority 2013, dated 2020).
Like-named read-outs stand apart in the source and are kept apart here.

Legend:
Foxp3+ Tregs = experiment: GM-BMDC / CD4+ T-cell co-culture, Treg proliferation by CFSE dilution (FACS); assay type: cell-based, mouse; conditions: for Treg proliferation: GM-BMDCs alone ~13.2±0.4%
Method: Each in vitro experiment was conducted in triplicate with T-cells, SpDCs and GM-BMDCs pooled from 3 mice. GM-BMDCs (5×10^4) and CD11c^+ SpDCs were cultured with CD4^+, CD4^+CD25^− and CD4^+CD25^+ T-cells at a ratio of 1:2 for 5 days. For proliferation assays, T-cell subpopulations were labelled with CFSE at 10 μM according to manufacturer's instruction (Invitrogen, Carlsbad, Calif.) before co-culturing them with DCs. Some cultures were supplemented with IL-2 (10 U/ml) (R&D Systems), antiOX40L (up to 10 μg/ml) antibody, OX40 agonist (OX-86, 5-10 μg/ml), anti-Jagged-1 (10-20 μg/ml) antibody or anti-Notch3 (10-20 μg/ml) antibody. For blocking experiments with anti-OX40L or anti-Jagged-1 antibodies, GM-BMDCs were pre-treated with the indicated antibodies for 30 min at 37° C. and then used in co-culture with naive CD4^+ T-cells. For blocking experiments with anti-Notch3 antibody, CD4+ T-cells isolated from mouse splenocytes were first treated with anti-Notch3 antibody at two different concentrations (10 and 20 μg/ml) or with 20 μg/ml of an anti-Notch 1 antibody, incubated at 37° C. for 30 minutes and then co-cultured with GM-BMDCs/SpDCs for 5 days. Some co-cultures were supplemented with different concentrations of gamma-secretase inhibitors (GSI) S-2188 (5 and 10 μM) or R04929097 (200 nM-5 μM).
Freshly isolated and ex vivo cultured cells were washed with PBS-BSA-EDTA or PBS containing 0.5% BSA. For surface staining, the cells were labelled with one of the following: specified FITC, PE, APC conjugated antibodies for 30 min, anti-CD4-eFluor-780, CD4-FITC (eBioscience), anti-CD25-PE, anti-CTLA4-PE, anti-CD39-PE, anti-Helios-PE, anti-TIGIT-PE or fixed, permeabilized, and stained with anti-, Anti-Ki67-PE, anti-Foxp3-APC and isotype controls antibodies (eBioscience) (1:100) in dark. […] Stained cells were washed three times and analyzed by Cyan flow cytometer (Beckman/Coulter) and data analysis was done using Summit v4.3 software.

Notch signaling = experiment: GSI-treated CD4+ T-cells from NOD mice co-cultured with G-BMDCs, proliferation by flow cytometry; assay type: cell-based, mouse; conditions: indicated concentrations, 5 days with G-BMDCs
Method: FIG. 13. […] (A) CD4+ T-cells from NOD mice were treated with γ-secretase inhibitor (GSI)-R042929097 at indicated concentrations and then co-cultured with G-BMDCs for 5 days. Extent of proliferation was measured by flow cytometry (n=3). (B) Notch3-OX40−, […], Notch3-OX40+, Notch3+OX40+ subsets of CD4^+CD25^+ Treg cells sorted out and co-cultured with G-BMDCs for 5 days and extent of proliferation was analyzed (n=2).
Bone marrow cells were cultured in complete RPMI medium containing 10% heat-inactivated FBS in the presence of 20 ng/ml GM-CSF for 3 days. On days 4 and 6, fresh medium containing 20 ng/ml GM-CSF was added. Non-adherent CD11c^+ DCs from eight day old cultures were enriched using anti-CD11c coated magnetic beads according to the manufacturer's directions (Miltenyi Biotech, Auburn, Calif.). Specific sub-populations of GM-BMDCs and CD4+CD25+ T-cells were sorted using a MoFlo flow cytometer (Beckman/Coulter, Ranch Cucamonga, Calif.) following staining with appropriate antibodies (OX40L, Jagged-1, CD4, CD25). To obtain GFP+ and GFP− cells, total CD4+ cells were first separated using CD4 microbeads (Miltenyi Biotech) and then the cells were sorted based on GFP expression using a MoFlo flow cytometer (Beckman/Coulter). […]

Foxp3 = experiment: Pathway inhibitors on OX40L, JAG1 and IL-2-induced Foxp3 expression (RT-qPCR, Western blot); assay type: cell-based, mouse; conditions: at 24 h
Method: CD4+ T-cells (1×10^6 cells/ml) were treated with soluble OX40 L, JAG1 and IL-2 as mentioned above. In some experiments cells were pre-treated with inhibitors of Notch (GSI-R04929097, Selleckchem), NF-κ B (BAY-11-7082, Sigma-Aldrich) and STAT5 (CAS 285986-31-4, Calbiochem) signaling for 2 h and co-treated with soluble ligands for different time intervals. Cells were washed with PBS, and lysed in Laemmli buffer (Biorad) and resolved in 10% SDS-PAGE gels. Proteins were transferred to PVDF membranes (Biorad), blocked with 5% skimmed milk and incubated with primary anti-mouse Foxp3 (1:1000, ebioscience), anti-mouse phospho p65 (Ser536) and phospho STAT5 (Tyr694) (1:500, Cell Signaling Technology) antibodies. Blots were then washed, incubated with secondary anti-rabbit IgG-HRP and developed using ECL detection kit (Pierce Scientific). […] Foxp3, pp65 and pSTAT5 signal intensities were normalized to β-actin, total p65 and STAT5 signal intensities and expressed as fold change over respective controls.
For some experiments, resting and proliferating Tregs were sorted based on cell trace violet dilution. […] Gene expression values were calculated by comparative Δ Ct method after normalization to GAPDH internal control and expressed as fold change over respective controls. […] Data were analyzed using the R-package software. […]

Treg cell proliferation = experiment: Pathway inhibitors on OX40L, JAG1 and IL-2-induced Treg proliferation (flow cytometry); assay type: cell-based, mouse; conditions: CD4+ T-cells from NOD mice pre-treated with inhibitor
Method: FIG. 21. Role of NF-κB and STAT5 signaling pathways in OX40L-JAG1-IL-2 induced Treg proliferation and Foxp3 expression. (A) CD4+ T-cells from NOD mice were pre-treated with pharmacological inhibitors of indicated cell signaling pathways and treated with soluble OX40L-JAG1-IL-2. Effect of these pathway inhibitors on Treg cell proliferation was measured by flow cytometry analysis. (B) RT-qPCR analysis showing effect of inhibitors of NF-κB and STAT5 signaling pathways on Foxp3 mRNA expression (Values represent Mean±SEM, n=3, *p<0.05, **p<0.01, ***p<0.001 Vs control, ^#p<0.05, ^##p<0.01 Vs None-OX40L-JAG1-IL-2). (C) Western blot analysis showing effect of inhibitors of NF-κ B and STAT5 signaling pathways on Foxp3 protein expression. Western blot analysis of the time dependent effect of soluble OX40L-JAG1-IL-2 on (D) Foxp3 expression, (E) NF-κ B p65 phosphorylation and (F) STAT5 phosphorylation in CD4+ T-cells. […]
CD4+ T-cells (1×10^6 cells/ml) were treated with soluble OX40 L, JAG1 and IL-2 as mentioned above. […] Foxp3, pp65 and pSTAT5 signal intensities were normalized to β-actin, total p65 and STAT5 signal intensities and expressed as fold change over respective controls.

NOD mice = conditions: cited from earlier work

## CC(C)(C(=O)NCC(F)(F)C(F)(F)F)C(=O)N[C@@H]1C(=O)Nc2ccccc2-c2ccccc21 [R04929097]
Foxp3+ Tregs; 250 nM
  Treg proliferation: 5.2±0.4%
Foxp3+ Tregs; 5 μM
  Treg proliferation: 1.7±0.3%
Foxp3+ Tregs; different concentrations (FIG. 8)
  GM-BMDC mediated Treg proliferation: abrogated
Notch signaling
  inhibition of Notch signaling / Treg proliferation: dose-dependent manner

## Cc1ccc(S(=O)(=O)/C=C/C#N)cc1 [NF-κB inhibitor]
Foxp3
  OX40L, JAG1 and IL-2-induced Foxp3 expression: significantly down regulated
Treg cell proliferation
  OX40L, JAG1 and IL-2-induced Treg proliferation: significantly blocked

## O=C(N/N=C/c1coc2ccccc2c1=O)c1cccnc1 [STAT5 inhibitor]
Foxp3
  OX40L, JAG1 and IL-2-induced Foxp3 expression: only moderately inhibited
Treg cell proliferation
  OX40L, JAG1 and IL-2-induced Treg proliferation: significantly blocked

B1: OX40L: tumor necrosis factor superfamily member with co-stimulatory function, binds OX40 (protein, UniProt P23510 1-183, looked up)
Tumor necrosis factor ligand …: MERVQPLEENVGNAARPRFERNKLLLVASVIQGLGLLLCFTYICLHFSALQVSHRYPRIQSIKVQFTEYKKEKGFILTSQKEDEIMKVQNNSVIINCDGFYLISLKGYFSQEVNISLHYQKDEEPLFQLKKVRSVNSLMVASLTYKDKVYLNVTTDNTSLDDFHVNGGELILIHQNPGEFCVL
NOD mice; 6-week old NOD mice
  CD4+CD25+Foxp3+ Treg cells: increase
  development of diabetes: protect
NOD mice; 12-week old NOD mice
  development of diabetes: accelerated diabetes development
